≈ marks a conversion by molar mass, not a printed value.
How the values were obtained:
S. sanguis = assay: MIC microdilution, gram positive; assay type: cell-based, Streptococcus sanguis; conditions: Streptococcus; Table 1, Gram Positive
How it was run: (§1)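 Modified NCCLS broth microdilution: aerobes in full-strength BHI, anaerobes in half-strength BHI with yeast extract, hemin and menadione, each well given 10 µL of a ~1×10^8 CFU/mL inoculum. Drugs ranged 50–0.05 µg/assay, run in duplicate, incubated 24–48 h, anaerobically under 5% CO2/10% H2/N2 where needed. MIC was the lowest concentration with no visible growth.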

P. acnes 11828 = assay: MIC microdilution, gram positive; assay type: cell-based, Propionibacterium acnes; conditions: Cutibacterium acnes, 11828; Table 1, Gram Positive
How it was run: as §1

P. acnes 6922 = assay: MIC microdilution, gram positive; assay type: cell-based, Propionibacterium acnes; conditions: Cutibacterium acnes, 6922; Table 1, Gram Positive
How it was run: as §1

Fuso. 25586 = assay: MIC microdilution, gram negative; assay type: cell-based, Fusobacterium nucleatum; conditions: for MIC: Fusobacterium nucleatum, Table 3, Gram Negative; for MIC Fuso. 25586: Table 3 printed a second time, Gram Negative
How it was run: (§2)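 Modified NCCLS broth microdilution; anaerobes grown 48-72 hrs in half-strength BHI with yeast extract, hemin and menadione, aerobes in full-strength BHI, inoculum ~1×10^8 CFU/mL (10 μL/assay). Drugs from DMSO stock, final 50 to 0.05 μg/assay, duplicate, 24 to 48 hrs (anaerobic: 5% CO2, 10% H2, N2); MIC = lowest concentration without visible growth.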

Aa Y4 = assay: MIC microdilution, gram negative; assay type: cell-based, Actinobacillus actinomycetemcomitans; conditions: for MIC: Aggregatibacter actinomycetemcomitans, Y4, Table 3, Gram Negative; for MIC Aa Y4: Table 3 printed a second time, Gram Negative
How it was run: as §2

B. fragilis = assay: MIC microdilution, gram negative; assay type: cell-based, Bacteroides fraglis; conditions: for MIC: Bacteroides fragilis, Table 3, Gram Negative; for MIC B. fragilis: Table 3 printed a second time, Gram Negative
How it was run: as §2

S. species R = assay: Staphylococcus MIC; assay type: cell-based, staphylococcus species R; conditions: for MIC: Staphylococcus, second Table 5 (Example 5), strain 00-045-1209
How it was run: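 Broth microdilution (modified NCCLS M7-A4): BHI for aerobes, supplemented half-strength BHI under 5% CO2/10% H2/N2 for anaerobes; 10 μL of ~1×10^8 CFU/mL inoculum; drugs 50 to 0.05 μg/assay from DMSO stock. Duplicates incubated 24–48 h; MIC = lowest concentration without visible growth. Staphylococcus R: coagulase-negative clinical isolate 00-045-1209.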

S. aureus R2 = assay: Staphylococcus MIC; assay type: cell-based; conditions: second Table 5 (Example 5), strain 00-42-1066
Method: The MIC's for the compounds were determined by a modified microdilution tube dilution method described in “Methods for Dilution Antimicrobial Susceptibility Tests for Bacteria that Grow Aerobically” (National Committee for Clinical Laboratory Standards Approved Standards, 1997, NCCLS document M7-A4). In general the modifications were made because of the unique growth requirements for the fastidious oral organisms and for those bacteria that require anaerobic conditions. Reference is also made to “Methods for Antimicrobial Susceptibility of Anaerobic Bacteria” (National Committee for Clinical Laboratory Standards Approved Standards, 1997, NCCLS document M11-A4).
Briefly, the methods were as follows. Cultures were grown for 18-24hrs (aerobic bacteria) or 48-72 hrs (anaerobic bacteria) in the appropriate medium. For aerobic bacteria full strength brain heart infusion medium (BHI, Difco) was used. For anaerobic bacteria, half strength BHI (18.5 g/L) was supplemented by adding yeast extract (10 g/L), hemin (0.29 mL of a stock solution containing 0.1 g/200 mL dH2O) and menadione (15 mL of a stock solution containing 0.15 mL in 30 mL 95% EtOH) was used. Initial cultures were diluted to approximately 1×10^8 CFU/mL for use as an inoculum. Each assay received 10 μL of the inoculum. The drugs were prepared from a stock solution contained in dimethyl sulfoxide (DMSO) and diluted into the culture medium. Final concentrations of the drugs ranged from 50 to 0.05 μg/assay. The tests were run in duplicate and were incubated appropriately with regard to oxygen requirements for 24 to 48 hrs as required. Anaerobic incubation was an atmosphere of 5% CO2, 10% H2, with the balance N2. The lowest concentration of an antimicrobial agent at which no visible growth is noted was referred to as the MIC.
The S.aureus R2 species is a strain 00-42-1066 from the Children's Hospital in Buffalo. It was isolated from a wound in an individual. It was […]. The sensitivity of this strain was tested agaisnt several known antibiotics.

Row | SMILES | MIC (S. sanguis) | MIC (P. acnes 11828) | MIC (P. acnes 6922) | MIC (Fuso. 25586) | MIC Fuso. 25586 (Fuso. 25586) | MIC (Aa Y4) | MIC Aa Y4 (Aa Y4) | MIC (B. fragilis) | MIC B. fragilis (B. fragilis) | MIC (S. species R) | MIC (S. aureus R2) | sensitivity of staphylococcus species R to the compounds (S. species R; statement in text referring to Table 5)
1 | CCCCc1ccc(C(=O)c2ccc(O)c(C(=O)Nc3cccc(C(F)(F)F)c3)c2)cc1 [BBAmF, reference compound] | > 50 µg/mL | 0.8 µg/mL (≈ 1.81 µM) | 0.2 µg/mL (≈ 0.453 µM) | > 50 µg/mL | NE (NE indicates that the drug was not effective at a concentration >50 micrograms/ml) | > 50 µg/mL | NE (NE indicates that the drug was not effective at a concentration >50 micrograms/ml) | > 50 µg/mL | NE (NE indicates that the drug was not effective at a concentration >50 micrograms/ml) | > 50 µg/mL | > 50 µg/mL | 
2 | N#Cc1cccc(NC(=O)c2cc(C(=O)c3cccc4ccccc34)ccc2O)c1 [NA1mC] | 6.3 µg/mL (≈ 16.1 µM) | 6.3 µg/mL (≈ 16.1 µM) | 6.3 µg/mL (≈ 16.1 µM) | 2.5 µg/mL (≈ 6.37 µM) | 2.5 micrograms/ml | 6.3 µg/mL (≈ 16.1 µM) | 6.3 micrograms/ml | > 50 µg/mL | NE (NE indicates that the drug was not effective at a concentration >50 micrograms/ml) | 25 µg/mL (≈ 63.7 µM) | 6.3 µg/mL (≈ 16.1 µM) | 
3 | O=C(c1ccc(-c2ccccc2)cc1)c1ccc(O)c(C(=O)Nc2cccc(C(F)(F)F)c2)c1 [BPAmF, reference compound] | > 50 µg/mL | 0.4 µg/mL (≈ 0.867 µM) | 0.2 µg/mL (≈ 0.433 µM) | > 50 µg/mL | NE (NE indicates that the drug was not effective at a concentration >50 micrograms/ml) | > 50 µg/mL | NE (NE indicates that the drug was not effective at a concentration >50 micrograms/ml) | 50 µg/mL (≈ 108 µM) | 50 micrograms/ml | > 50 µg/mL | > 50 µg/mL | 
4 | N#Cc1cccc(NC(=O)c2cc(C(=O)c3ccc(-c4ccccc4)cc3)ccc2O)c1 [BPAmC, reference compound] | > 50 µg/mL | 12.5 µg/mL (≈ 29.9 µM) | 0.2 µg/mL (≈ 0.478 µM) | > 50 µg/mL | NE (NE indicates that the drug was not effective at a concentration >50 micrograms/ml) | > 50 µg/mL | NE (NE indicates that the drug was not effective at a concentration >50 micrograms/ml) | 50 µg/mL (≈ 119 µM) | 50 micrograms/ml | > 50 µg/mL | > 50 µg/mL | 
5 | O=C(Nc1cccc(C(F)(F)F)c1)c1cc(C(=O)c2cccc3ccccc23)ccc1O [NA1mF] | 0.8 µg/mL (≈ 1.84 µM) | 0.4 µg/mL (≈ 0.919 µM) | 0.2 µg/mL (≈ 0.459 µM) | 3.1 µg/mL (≈ 7.12 µM) | 3.1 micrograms/ml | 3.1 µg/mL (≈ 7.12 µM) | 3.1 micrograms/ml | 3.1 µg/mL (≈ 7.12 µM) | 3.1 micrograms/ml | 1.6 µg/mL (≈ 3.67 µM) | 1.6 µg/mL (≈ 3.67 µM) | highest effect

Source: US6407288B1, “Naphthylsalicylanilides as antimicrobial and antiinflammatory agents” (The Research Foundation of State University of New York, priority 2000, dated 2002)
